Results as given in patent publication US20250064064A1, “METHODS FOR DESIGNING AND […] VAPOR PHASE HYDROGEN PEROXIDE DECON[…]” (Amgen Inc., priority 2021, published 2025).
Read-outs that look alike come from different tables or passages of the source.

Test system: viable spores of Geobacillus stearothermophilus
Settings: for growth results for biological indicators: dose 8 mL, seven BIs, seven-day incubation, no growth = 6-Log CFU reduction
Experimental: In general, for each of the experiments, a respective amount of gas is circulated in a chamber interior containing Bls (in these experiments, seven Bls) for a respective amount of time. Then, after removing the gas from the chamber interior, the Bls are tested to determine whether the desired CFU reduction was achieved.
One example method of determining whether the desired CFU reduction was achieved is by removing the Bls from the chamber interior after circulating a particular amount of gas for a particular amount of time, and incubating the Bls in a growth-promoting medium for seven days.
In this example, the seven Bls of FIG. 3 may be in one or more locations in the chamber interior (e.g., with at least some in locations that are relatively difficult to decontaminate in the chamber interior). The Bls may be inoculated with viable spores of Geobacillus stearothermophilus, for example, or another suitable type of thermophile bacteria. The D-value of the Bls may be provided by the manufacturer of the Bls and may be, for example, 0.25 minutes, 0.5 minutes, 1 minutes, 1.5 minutes, 2 minutes, 2.5 minutes, or any other suitable D-value.

OO [gas, hydrogen peroxide]
growth-no growth behavior with respect to time (10 mL amount of gas compared with 8 mL amount of gas): identical
growth results for biological indicators (gas circulated for 100 seconds): all but one BI (BI #4) achieving no growth
growth results for biological indicators (gas circulated for 300 seconds): no growth for all seven Bls
growth results for biological indicators (gas circulated for 500 seconds): no growth for all seven Bls
